Where two headings read alike, the source gives them in different places.
Target: DCN1 (DCUND1) protein PONY domain (Homo sapiens (Human), UniProt Q96GG9)
Assay: TR-FRET assay (binding to DCN-1, displacement of FAM-labeled probe)
Outline: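 Compounds read at 1, 5 and 24 h, 0.1% final DMSO, by TR-FRET between terbium-streptavidin on biotinylated DCN1 PONY domain (E. coli) and a FAM-tagged non-covalent inhibitor probe. Two setups used, 5 nM protein with 20 nM labelled probe, or 0.31 nM protein with 100 nM labelled plus 800 nM unlabelled probe; buffer had TritonX and 200 mM NaCl. % activity relative to high (with probe) and low (without probe) controls.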

[1] = 24 hr after treatment with compound, read-out: TR FRET IC50 24 hr
[2] = TR FRET IC50 1 hr (nM), 1 hr after treatment with compound
[3] = read-out: TR FRET IC50 1 hr, 1 hr after treatment with compound

Sequence of DCN1 (DCUND1) protein PONY domain (Q96GG9 60-248): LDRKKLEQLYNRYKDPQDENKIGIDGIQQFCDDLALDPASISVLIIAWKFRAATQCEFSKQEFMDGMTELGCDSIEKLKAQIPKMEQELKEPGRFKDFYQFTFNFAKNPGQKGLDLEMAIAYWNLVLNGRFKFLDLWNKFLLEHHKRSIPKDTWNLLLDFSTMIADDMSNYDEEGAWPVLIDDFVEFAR

Q: With `C=C(CN1CCN(C2COC2)CC1)C(=O)NCc1cccc([C@@H]2c3cnn(-c4ccccc4)c3N(CC)C(=O)[C@H]2NC(=O)c2nccc(C(F)(F)F)n2)n1` [Compound I-333] as the compound, how does the IC50 [1] read?
A: ≤ 200 nM

Q: What about the IC50 [2] of the same compound?
A: 200 to 1000 nM

Q: Which results are given for `C=C(C(=O)NCc1cccc([C@@H]2c3cnn(-c4ccccc4)c3N(CC)C(=O)[C@H]2NC(=O)c2ccn(CCF)n2)c1)C(C)N(C)C1COC1` (some centres unmarked) [Compound I-334]?
A: IC50 [1]: ≤ 200 nM; IC50 [2]: 200 to 1000 nM

Q: Which results are given for `CCC(=O)NCc1cccc([C@@H]2c3cnn(-c4ccccc4)c3N(CC)C(=O)[C@H]2NC(=O)c2ccn(C(F)(F)F)n2)c1` [Compound I-335]?
A: IC50 [1]: 200 to 1000 nM; IC50 [2]: 1000 to 3000 nM

Q: How did the IC50 [1] turn out when `C/C=C(\CN1CC2CC(C1)O2)C(=O)Nc1cccc([C@@H]2c3cnn(-c4ccccc4)c3N(CC)C(=O)[C@H]2NC(=O)c2nccc(C(F)(F)F)n2)c1` [Compound I-337, N-((4R,5S)-4-(3-((E)-2-((6-oxa-3-azabicyclo[3.1.1]heptan-3-yl)methyl)but-2-enamido)phenyl)-7-ethyl-6-oxo-1-phenyl-4,5,6,7-tetrahydro-1H-pyrazolo[3,4-b]pyridin-5-yl)-4-(trifluoromethyl)pyrimidine-2-carboxamide] was run?
A: ≤ 200 nM

Q: And the IC50 [2]?
A: 200 to 1000 nM

Q: For `C=C(CN1CCOCC1)C(=O)NCc1cccc([C@@H]2c3cnn(-c4ccccc4)c3N(CC)C(=O)[C@H]2NC(=O)c2ccn(C)n2)c1` [Compound I-338], which IC50 [1] is on record?
A: ≤ 200 nM

Q: And the IC50 [2]?
A: 1000 to 3000 nM

Q: Which IC50 [1] does the source give for `CCN1C(=O)[C@@H](NC(=O)c2cccc(C(F)(F)F)c2)[C@H](c2cccc(CN(C)C/C=C/C(=O)N(C)C)c2)c2cnn(-c3ccccc3)c21` [Compound I-339] here?
A: 1000 to 3000 nM

Q: What about the IC50 [2] of the same compound?
A: 1000 to 3000 nM

Q: For `C=C(CN1CCOCC1)C(=O)NCc1cccc([C@@H]2c3cnn(-c4ccccc4)c3N(CC)C(=O)[C@H]2NC(=O)c2ccn(CC#N)n2)c1` [Compound I-340, 1-(cyanomethyl)-N-((4R,5S)-7-ethyl-4-(3-((2-(morpholinomethyl)acrylamido)methyl)phenyl)-6-oxo-1-phenyl-4,5,6,7-tetrahydro-1H-pyrazolo[3,4-b]pyridin-5-yl)-1H-pyrazole-3-carboxamide], which IC50 [1] is on record?
A: 200 to 1000 nM

Q: And the IC50 [2]?
A: 1000 to 3000 nM

Q: `C/C=C(\CN1CCC1)C(=O)NCc1cccc([C@@H]2c3cnn(-c4ccccc4)c3N(CC)C(=O)[C@H]2NC(=O)c2cccc(C(F)(F)F)c2)c1` [Compound I-341] was tested. Which IC50 [1] did it give?
A: ≤ 200 nM

Q: What about the IC50 [2] of the same compound?
A: 200 to 1000 nM

Q: Which IC50 [1] does the source give for `C=C(C(=O)N(C)Cc1cccc([C@@H]2c3cnn(-c4ccccc4)c3N(CC)C(=O)[C@H]2NC(=O)c2ccn(C3CC3)n2)c1)C(C)N1CCC12COC2` (some centres unmarked) [Compound I-343] here?
A: 200 to 1000 nM

Q: What about the IC50 [2] of the same compound?
A: 1000 to 3000 nM

Q: `C=C(C(=O)NCc1cccc([C@@H]2c3cnn(-c4ccccc4)c3N(CC)C(=O)[C@H]2NC(=O)c2ccn(C(F)(F)F)n2)c1)C(C)N1CCC12COC2` (some centres unmarked) [Compound I-344] was tested. Which IC50 [1] did it give?
A: ≤ 200 nM

Q: What about the IC50 [2] of the same compound?
A: 200 to 1000 nM

Q: With `C=C(CN1CC2CC(C1)O2)C(=O)NCc1cccc([C@@H]2c3cnn(-c4ccccc4)c3N(CC)C(=O)[C@H]2NC(=O)c2nccc(C(F)(F)F)n2)c1` [Compound I-346] as the compound, how does the IC50 [1] read?
A: ≤ 200 nM

Q: What about the IC50 [3] of the same compound?
A: ≤ 200 nM

Q: What does the source list for `C=C(CN1CC2CCC(C1)O2)C(=O)NCc1cccc([C@@H]2c3cnn(-c4ccccc4)c3N(CC)C(=O)[C@H]2NC(=O)c2ccn(C(F)(F)F)n2)c1` [Compound I-347]?
A: IC50 [1]: ≤ 200 nM; IC50 [3]: ≤ 200 nM

Q: What does the source list for `CCN1C(=O)[C@@H](NC(=O)c2cccc(C(F)(F)F)c2)[C@H](c2cccc(CNC(=O)C3=CCN(C)C3)n2)c2cnn(-c3ccccc3)c21` [Compound I-348]?
A: IC50 [1]: 1000 to 3000 nM; IC50 [2]: 1000 to 3000 nM

Q: With `C=C(CN(C)C1COC1)C(=O)NCc1cccc([C@H]2c3c(C)nn(-c4ccccc4)c3N(CC)C(=O)[C@@H]2NC(=O)c2cccc(C(F)(F)F)c2)c1` [Compound I-349] as the compound, how does the IC50 [1] read?
A: 200 to 1000 nM

Q: And the IC50 [2]?
A: 1000 to 3000 nM

Q: With `C=C(CN1CCOCC1)C(=O)NCc1cccc([C@@H]2c3cnn(-c4ccccc4)c3N(CC)C(=O)[C@H]2NC(=O)c2ccn(CC)n2)c1` [Compound I-351] as the compound, how does the IC50 [1] read?
A: ≤ 200 nM

Q: And the IC50 [2]?
A: 200 to 1000 nM

Q: `C=C(C(=O)NCc1cccc([C@@H]2c3cnn(-c4ccccc4)c3N(CC)C(=O)[C@H]2NC(=O)c2csc(C(F)(F)F)n2)c1)C(C(C)C)N(C)C1COC1` (some centres unmarked) [Compound I-352] was tested. Which IC50 [1] did it give?
A: ≤ 200 nM

Q: What about the IC50 [3] of the same compound?
A: ≤ 200 nM

From patent US12435087B2, “Modulators of DCN-1 and methods of use thereof” (Cellarity, Inc., priority 2023, dated 2025)
